The series concerns human maximum recommended daily dose, FDA database. In words: DSSTox (FDAMDD) FDA Maximum (Recommended) Daily Dose Database. Particulars: active compounds read low. In short, it runs like this: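 MRDD values come from clinical trials with daily oral dosing, usually for 3–12 months, for the average adult, in mg/day converted to mg/kg-bw/day assuming 60 kg. Antineoplastic mg/m2 doses are divided by 37. Activity score maps log10(1/MRDD mmol) onto 1–100.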

The mark [1] stands for this setting: TherapeuticCategory: anticoagulant.
Setting [2] is: TherapeuticCategory: skeletal muscle relaxant.
The mark [3] stands for this setting: TherapeuticCategory: antibacterial.
[4] abbreviates: TherapeuticCategory: antineoplastic.
[5] abbreviates: TherapeuticCategory: antiprotozoal.
[6] abbreviates: TherapeuticCategory: anticholinergic.
Setting [7] is: TherapeuticCategory: progestogen.
[8] abbreviates: TherapeuticCategory: antidepressant.
Where [9] appears, read: TherapeuticCategory: antipsychotic.
The mark [10] stands for this setting: TherapeuticCategory: antihistaminic.
[11] abbreviates: TherapeuticCategory: anticonvulsant.
The mark [12] stands for this setting: TherapeuticCategory: glucocorticoid.

Structures are written as SMILES.

For the compound `CCC(c1ccccc1)c1c(O)c2ccccc2oc1=O` (centres undefined), under setting [1], the maximum recommended daily dose (mmol/kg-bw/day) is 0.00143. Turning to `O=C(OC1CC2CCC(C1)[N+]21CCCC1)C(O)(c1ccccc1)c1ccccc1` (centres undefined), for the setting “TherapeuticCategory: antispasmodic”, the maximum recommended daily dose (mmol/kg-bw/day) was 0.000467. In the case of `CC1=C(/C=C/C(C)=C/C=C/C(C)=C\C(=O)O)C(C)(C)CCC1`, the maximum recommended daily dose (mmol/kg-bw/day) (TherapeuticCategory: keratolytic) is 0.00666. As for `COc1ccc(CC2c3cc(OC)c(OC)cc3CC[N+]2(C)CCC(=O)OCCCCCOC(=O)CC[N+]2(C)CCc3cc(OC)c(OC)cc3C2Cc2ccc(OC)c(OC)c2)cc1OC` (centres undefined), the maximum recommended daily dose (mmol/kg-bw/day) under setting [2] is 0.000402. As for `CN1C(=O)NC(=O)C(C)(C2=CCCCC2)C1=O` (centres undefined), the maximum recommended daily dose (mmol/kg-bw/day) (TherapeuticCategory: sedative, hypnotic, anesthetic) was 0.0353. Turning to `Cn1nnnc1SCC1=C(C(=O)O)N2C(=O)[C@@H](NC(=O)[C@H](O)c3ccccc3)[C@H]2SC1`, the maximum recommended daily dose (mmol/kg-bw/day) under setting [3] is 0.216. Consider `N[C@@H](Cc1cc(I)c(Oc2ccc(O)c(I)c2)c(I)c1)C(=O)O`, for which the maximum recommended daily dose (mmol/kg-bw/day) (TherapeuticCategory: thyroid hormone) is 2.57e-06. As for `Nc1ncn([C@@H]2O[C@H](CO)[C@@H](O)[C@H]2O)c(=O)n1`, under setting [4], the maximum recommended daily dose (mmol/kg-bw/day) is 0.0831. Take `CCCCC[C@H](O)/C=C/[C@H]1[C@H](O)CC(=O)[C@@H]1CCCCCCC(=O)O`: for the setting “TherapeuticCategory: vasodilator”, the maximum recommended daily dose (mmol/kg-bw/day) is 2.82e-07.

Turning to `CN[C@@H]1[C@@H](O)[C@@H](O[C@@H]2[C@@H](O)[C@H](O[C@H]3O[C@H](C(C)N)CC[C@H]3N)[C@@H](N)C[C@H]2N)OC[C@]1(C)O` (some centres undefined), under setting [3], the maximum recommended daily dose (mmol/kg-bw/day) is 0.00647. For the compound `Cc1ncc([N+](=O)[O-])n1CCO`, the maximum recommended daily dose (mmol/kg-bw/day) under setting [5] is 0.195.

For `OC(c1ccccc1)(c1ccccc1)C1CCCCN1` (centres undefined), the maximum recommended daily dose (mmol/kg-bw/day) (TherapeuticCategory: CNS stimulant) is 0.000374. Consider `C[N+]12CCC(CC1)C(OC(=O)C(O)(c1ccccc1)c1ccccc1)C2` (centres undefined), for which the maximum recommended daily dose (mmol/kg-bw/day) under setting [6] is 0.00077. For `CC(C)(C#N)c1cc(Cn2cncn2)cc(C(C)(C)C#N)c1`, for the setting “TherapeuticCategory: androgen”, the maximum recommended daily dose (mmol/kg-bw/day) was 5.69e-05. Take `C#C[C@]1(O)CC[C@H]2[C@@H]3CCC4=C(CCC(=O)C4)[C@H]3CC[C@@]21C`: the maximum recommended daily dose (mmol/kg-bw/day) under setting [7] was 0.00224.

Regarding `CCc1nn(CCCN2CCN(c3cccc(Cl)c3)CC2)c(=O)n1CC`, the maximum recommended daily dose (mmol/kg-bw/day) under setting [8] is 0.00662.

Consider `NC(=O)c1cnccn1`, for which the maximum recommended daily dose (mmol/kg-bw/day) under setting [3] is 0.244.

Take `Cc1ncsc1CCCl`: where the note is “TherapeuticCategory: sedative, hypnotic, anticonvulsant”, the maximum recommended daily dose (mmol/kg-bw/day) is 0.0396.

Regarding `C1CCC(C(CC2CCCCN2)C2CCCCC2)CC1` (centres undefined), the maximum recommended daily dose (mmol/kg-bw/day) (TherapeuticCategory: vasodilator, Ca channel blocker, diuretic) is 0.018. On to `OC(CCCN1CCCCC1)(c1ccccc1)c1ccccc1`, for which the maximum recommended daily dose (mmol/kg-bw/day) (TherapeuticCategory: antiemetic) was 0.0162. For the compound `O=c1[nH]c2ccccc2n1C1CCN(CCCC(c2ccc(F)cc2)c2ccc(F)cc2)CC1`, the maximum recommended daily dose (mmol/kg-bw/day) under setting [9] is 0.000362. `COc1cc(C)c(/C=C/C(C)=C/C=C/C(C)=C/C(=O)O)c(C)c1C`: the maximum recommended daily dose (mmol/kg-bw/day) (TherapeuticCategory: antipsoriatic) is 0.00383. With `CC1CCC(C(C)C)C(O)C1` (centres undefined), the maximum recommended daily dose (mmol/kg-bw/day) (TherapeuticCategory: topical antipruritic) is 0.0128.

In the case of `Cc1ccc(/C(=C\CN2CCCC2)c2cccc(/C=C/C(=O)O)n2)cc1`, under setting [10], the maximum recommended daily dose (mmol/kg-bw/day) is 0.00153.

On to `COc1ccc2c(c1OC)C(=O)O[C@@H]2[C@H]1c2c(cc3c(c2OC)OCO3)CCN1C`, for which the maximum recommended daily dose (mmol/kg-bw/day) (TherapeuticCategory: antitussive) is 0.00605. On to `CC(C)(C)NCC(O)COc1cccc2c1CCC(=O)N2` (centres undefined), for which the maximum recommended daily dose (mmol/kg-bw/day) (TherapeuticCategory: antihypertensive, antianginal, antiarrhythmic, antiglaucomic) was 0.000571. Turning to `CN(C)CCn1nnnc1SCC1=C(C(=O)O)N2C(=O)[C@@H](NC(=O)Cc3csc(N)n3)[C@H]2SC1`, the maximum recommended daily dose (mmol/kg-bw/day) under setting [3] was 0.19. On to `C[C@]12CC[C@H]3[C@@H](CCC4=CC(=O)CC[C@@H]43)[C@@H]1CC[C@@H]2OC(=O)CCc1ccccc1`, for which the maximum recommended daily dose (mmol/kg-bw/day) (TherapeuticCategory: anabolic steroid) is 0.00819. For the compound `Nc1cc(-c2ccncc2)c[nH]c1=O`, the maximum recommended daily dose (mmol/kg-bw/day) (TherapeuticCategory: cardiotonic) is 0.00401.

For `NCC1(CC(=O)O)CCCCC1`, the maximum recommended daily dose (mmol/kg-bw/day) under setting [11] was 0.117. `CN1CCN(C2=Nc3ccccc3Sc3ccc(Cl)cc32)CC1`: under setting [9], the maximum recommended daily dose (mmol/kg-bw/day) is 0.000727. As to `CCCCC(CC)COC(=O)CC(C(=O)OCC(CC)CCCC)S(=O)(=O)O` (centres undefined), for the setting “TherapeuticCategory: stool softener”, the maximum recommended daily dose (mmol/kg-bw/day) was 0.0109. Turning to `CCn1cc(C(=O)O)c(=O)c2ccc(C)nc21`, the maximum recommended daily dose (mmol/kg-bw/day) under setting [3] is 0.287. On to `NNC(=O)c1ccncc1`, for which, under setting [3], the maximum recommended daily dose (mmol/kg-bw/day) is 0.0729. In the case of `Oc1c(I)cc(Cl)c2cccnc12`, the maximum recommended daily dose (mmol/kg-bw/day) (TherapeuticCategory: topical anti infective, antiamebic) is 0.0818. Regarding `COc1cc(NS(C)(=O)=O)ccc1Nc1c2ccccc2nc2ccccc12`, the maximum recommended daily dose (mmol/kg-bw/day) under setting [4] is 0.00823. Regarding `CCOc1ccccc1OCCN[C@H](C)Cc1ccc(OC)c(S(N)(=O)=O)c1`, under “TherapeuticCategory: alpha 1A androceptor antagonist”, the maximum recommended daily dose (mmol/kg-bw/day) is 3.26e-05. For the compound `CCOC(=O)[C@H](CCc1ccccc1)N[C@@H](C)C(=O)N1Cc2cc(OC)c(OC)cc2C[C@H]1C(=O)O`, the maximum recommended daily dose (mmol/kg-bw/day) (TherapeuticCategory: antihypertensive, ACE inhibitor) is 0.00167. Take `N=C(N)c1ccc(OCCCCCOc2ccc(C(=N)N)cc2)cc1`: the maximum recommended daily dose (mmol/kg-bw/day) under setting [5] is 0.0118.

For `CCC(=O)c1ccc2c(c1)N(CC(C)N(C)C)c1ccccc1S2` (centres undefined), the maximum recommended daily dose (mmol/kg-bw/day) (TherapeuticCategory: sedative, hypnotic) was 0.00245. On to `CN1[C@@H]2CC(OC(=O)[C@H](CO)c3ccccc3)C[C@H]1[C@@H]1O[C@@H]12` (some centres undefined), for which the maximum recommended daily dose (mmol/kg-bw/day) under setting [6] is 1.09e-06. `CCN(CC)CCNC(=O)c1cc(S(C)(=O)=O)ccc1OC`: the maximum recommended daily dose (mmol/kg-bw/day) (TherapeuticCategory: antidyskinetic) was 0.0203. Turning to `C#C[C@]1(O)CC[C@H]2[C@@H]3CCC4=C[C@@H](O)CC[C@@H]4[C@H]3CC[C@@]21C`, the maximum recommended daily dose (mmol/kg-bw/day) under setting [7] was 5.56e-05. As to `CC(C)(C)CC(=O)OCC(=O)[C@@]1(O)CC[C@H]2[C@@H]3CCC4=CC(=O)C=C[C@]4(C)[C@H]3[C@@H](O)C[C@@]21C`, the maximum recommended daily dose (mmol/kg-bw/day) under setting [12] is 0.00726.

Consider `O=C(CCCN1CCC(n2c(=S)[nH]c3ccccc32)CC1)c1ccc(F)cc1`, for which, under setting [9], the maximum recommended daily dose (mmol/kg-bw/day) is 0.000503. For `Cc1ccccc1OCC(O)CO` (centres undefined), the maximum recommended daily dose (mmol/kg-bw/day) under setting [2] was 0.274. In the case of `O=C(O)c1cc(N=Nc2ccc(S(=O)(=O)Nc3ccccn3)cc2)ccc1O`, the maximum recommended daily dose (mmol/kg-bw/day) (TherapeuticCategory: treatment of ulcerative colitis and Crohn's disease) is 0.334. Regarding `CCCCC(=O)N(Cc1ccc(-c2ccccc2-c2nn[nH]n2)cc1)[C@@H](C(=O)O)C(C)C`, the maximum recommended daily dose (mmol/kg-bw/day) (TherapeuticCategory: antihypertensive) was 0.0122. In the case of `NC(=O)OCC(COC(N)=O)c1ccccc1`, under setting [11], the maximum recommended daily dose (mmol/kg-bw/day) was 0.252.

Consider `CC(C1=C(CCN(C)C)Cc2ccccc21)c1ccccn1` (centres undefined), for which the maximum recommended daily dose (mmol/kg-bw/day) under setting [10] is 0.000342. As for `CN(C)[C@@H]1C(=O)C(C(N)=O)=C(O)[C@@]2(O)C(=O)C3=C(O)c4c(O)ccc(Cl)c4[C@@](C)(O)[C@H]3C[C@@H]12`, the maximum recommended daily dose (mmol/kg-bw/day) (TherapeuticCategory: antibacterial, antiamebic) is 0.0695. Consider `CCC1(c2ccccc2)C(=O)NC(=O)N(C)C1=O` (centres undefined), for which the maximum recommended daily dose (mmol/kg-bw/day) (TherapeuticCategory: anticonvulsant, sedative, hypnotic) is 0.0406. On to `O=C(O)[C@H](O)[C@@H](O)C(=O)O`, for which, under “TherapeuticCategory: none”, the maximum recommended daily dose (mmol/kg-bw/day) is 0.2. For the compound `CC(=O)N(c1onc(C)c1C)S(=O)(=O)c1ccc(N)cc1`, under setting [3], the maximum recommended daily dose (mmol/kg-bw/day) was 0.216. Turning to `Cc1c(C)c2c(c(C)c1O)CCC(C)(COc1ccc(CC3SC(=O)NC3=O)cc1)O2` (centres undefined), the maximum recommended daily dose (mmol/kg-bw/day) (TherapeuticCategory: antidiabetic) is 0.0226. Consider `CN(C)CCC(c1ccc(Cl)cc1)c1ccccn1` (centres undefined), for which, under setting [10], the maximum recommended daily dose (mmol/kg-bw/day) was 0.000484. Consider `C[C@]12CCC(=O)C=C1CC[C@@H]1[C@@H]2[C@@H](O)C[C@]2(C=O)[C@@H](C(=O)CO)CC[C@@H]12`, for which, where the note is “TherapeuticCategory: mineralcorticoid”, the maximum recommended daily dose (mmol/kg-bw/day) was 2.31e-05. Take `CCCCCCCCCCCCCCCCCC(=O)OCC(=O)OCC(=O)[C@@]1(O)CC[C@H]2[C@@H]3CCC4=CC(=O)C=C[C@]4(C)[C@H]3[C@@H](O)C[C@@]21C`: under setting [12], the maximum recommended daily dose (mmol/kg-bw/day) is 0.00486. As to `CO[C@@]12[C@H](COC(N)=O)C3=C(C(=O)C(C)=C(N)C3=O)N1C[C@@H]1N[C@@H]12`, under setting [4], the maximum recommended daily dose (mmol/kg-bw/day) is 0.00162. Turning to `CC(C)(O)CC(C)(O)c1ccc(Cl)cc1` (centres undefined), the maximum recommended daily dose (mmol/kg-bw/day) under setting [8] was 0.0437. With `CCC(=O)O[C@](Cc1ccccc1)(c1ccccc1)[C@H](C)CN(C)C`, the maximum recommended daily dose (mmol/kg-bw/day) (TherapeuticCategory: narcotic analgesic) was 0.0191.

Take `Cc1cn([C@H]2C[C@H](N=[N+]=[N-])[C@@H](CO)O2)c(=O)[nH]c1=O`: the maximum recommended daily dose (mmol/kg-bw/day) (TherapeuticCategory: antiviral) was 0.0374.

Turning to `CC(CN(C)C)CN1c2ccccc2CCc2ccccc21` (centres undefined), the maximum recommended daily dose (mmol/kg-bw/day) under setting [8] was 0.0113. `Cc1nc(N/C(N)=N/S(=O)(=O)c2ccc(N)cc2)oc1C`: the maximum recommended daily dose (mmol/kg-bw/day) under setting [3] was 0.129. Take `OC1OC[C@@H](O)[C@H](O)[C@H]1O` (some centres undefined): under “TherapeuticCategory: intestinal function diagnostic aid”, the maximum recommended daily dose (mmol/kg-bw/day) is 2.78.

Regarding `C#CCN1C(=O)CN=C(c2ccccc2)c2cc(Cl)ccc21`, the maximum recommended daily dose (mmol/kg-bw/day) (TherapeuticCategory: anxiolytic) was 0.00108. As to `O=C1O[C@H]([C@@H](O)CO)C(O)=C1O`, for the setting “TherapeuticCategory: vitamin C deficiency”, the maximum recommended daily dose (mmol/kg-bw/day) was 0.568.

`O=c1oc2ccccc2c(O)c1Cc1c(O)c2ccccc2oc1=O`: the maximum recommended daily dose (mmol/kg-bw/day) under setting [1] is 0.0149. Take `N=C(N)N`: the maximum recommended daily dose (mmol/kg-bw/day) (TherapeuticCategory: none) was 0.846.
